Experiments:
Assay type in all cases: in vivo, rat
8-OHdG = assay: Jejunal 8-OHdG concentration in rats fed a low-zinc diet; details: male Slc/SD rats, low-zinc diet 7 days, gavage on days 5 and 6 (0.5 mL/100 g B.W.), organs harvested 24 hours after day 6 dose; low-zinc diet group 9.31±0.29, standard diet group 6.82±0.56
Method: (§1) Male Slc/SD rats (4 weeks old) were used as experimental animals. (Grouping and Diet)
(§2) The rats were divided into the following groups, and the diets were as follows.
(§3) Low-zinc diet group (n=6): Free intake of a low-zinc diet (The concentration of zinc in the low-zinc diet: 3.9 mg zinc/kg diet) Note that the zinc concentration of the low-zinc diet is assumed to be 2.5 mg zinc/kg diet to 10 mg zinc/kg diet.)
(§4) From the start date of the regular breeding, the standard diet was fed to the standard diet group, and the low-zinc diet was fed to four groups including the low-zinc diet group, the low-zinc diet+precipitation fraction group, the low-zinc diet+supernatant fraction group, and the low-zinc diet+synthetic DHMBA group. They were fed by free intake. On days 5 and 6, 0.5% methyl cellulose solution was given to the standard diet group and the low-zinc diet group by gavage administration. The Pacific oyster extraction supernatant fraction was given to the low-zinc diet+supernatant fraction group by gavage administration. The Pacific oyster extraction precipitation fraction was given to the low-zinc diet+precipitation fraction group by gavage administration. The synthetic DHMBA was given to the low-zinc diet+synthetic DHMBA group by gavage administration. […]
(§5) The jejunal SOD concentration, MDA concentration, 8-OHdG concentration, ZIP4 concentration, and serum zinc concentration were measured. […]

MDA = assay: Jejunal MDA concentration in rats fed a low-zinc diet; details: male Slc/SD rats, gavage on days 5 and 6, result in words, low-zinc diet group 6.67±0.47, standard diet group 4.53±0.26 mg/g of jejunum
Method: as §1, §2, §3, §4, §5

ZIP4 = assay: Jejunal ZIP4 concentration in rats fed a low-zinc diet; details: male Slc/SD rats, low-zinc diet 7 days, gavage on days 5 and 6, organs harvested 24 hours after day 6 dose; low-zinc diet group 4.38±0.33, standard diet group 8.89±0.71
Method: as §1, §2, §3, §4, §5

[1] = Serum zinc concentration in rats fed a low-zinc diet; details: male Slc/SD rats, gavage on days 5 and 6, result in words
Method: as §1, §2, §3, §4, §5

Question: With COc1c(O)cc(CO)cc1O [synthetic DHMBA, 3,5-dihydroxy-4-methoxybenzyl alcohol] as the compound, how does the “jejunal 8-OHdG concentration” value (8-OHdG) read?
Answer: The value was 7.81±0.49 ng/g of jejunum.

Question: What about the “jejunal MDA concentration compared with low-zinc diet group” value (MDA) of the same compound?
Answer: The value was “decrease in MDA”.

Question: And the “jejunal ZIP4 concentration” value (ZIP4)?
Answer: The value was 6.44 ± 0.76 pg/mg.

Question: And the “serum zinc concentration compared with low-zinc diet group” value [1]?
Answer: Its value is “significantly higher”.
